Results from US20090062536A1, “USE OF SULFONANILIDE COMPOUNDS AS HERBICIDE” (Bayer CropScience AG, priority 2007, published 2009).

Tests used:
directley seeded rice = assay: Herbicidal damage on directly seeded paddy rice, paddy field pot test; assay type: in vivo, Oryza sativa L. cultivar: Nihonbare; conditions: 125 g ai/ha applied onto water surface; rated 3 weeks after treatment; 100% complete withering, 0% no damage
Description: (§1) Test of herbicidal effect to weeds and damage on paddy rice in a paddy field: In a greenhouse, each three paddy rice seedlings (Oryza sativa L. cultivar: Nihonbare) were transplanted in each pot filled with paddy field soil. Each twenty forced sprouts of paddy rice (Oryza sativa L. cultivar: Nihonbare) were also inoculated in each pot. Then, any of seeds or tubers of Cyperus difformis L., Echinochloa crus-galli, Scirpus juncoides, SU-resistant Scirpus juncoides, annual broad leaf weeds (including Lindernia procumbens Philcox, Rotala indica Koehne, and Elatine triandra Schk), SU-resistant annual broad leaf weeds, Sagittaria pygmaea Miq, Cyperus serotinus Rottboel was inoculated in the pot and covered with water in about 2 to 3 cm depth. Five days after transplanting paddy rice, prescribed diluted solutions of formulations of the respective active compounds were applied onto the water surface. Each of the formulations was prepared as an emulsion by mixing 1 part by weight of active compound with 5 parts by weight of carrier and 1 part by weight of emulsifier (benzyloxy polyglycol ether). After the treatment, water depth of 3 cm was kept. A herbicidal effect and a herbicidal damage on paddy rice were investigated 3 weeks after the treatment. The herbicidal effect and the herbicidal damage on paddy rice were rated as 100% in the case of complete withering and 0% in the case of no herbicidal effect or no herbicidal damage.

Sagittaria pygmaea = assay: Herbicidal effect to weeds in a paddy field, pot test; assay type: in vivo, Sagittaria pygmaea Miq; conditions: 125 g ai/ha applied onto water surface; rated 3 weeks after treatment; 100% complete withering, 0% no effect
Description: as §1

Cyperus serotinus = assay: as above; assay type: in vivo, Cyperus serotinus Rottboel; conditions: 125 g ai/ha applied onto water surface; rated 3 weeks after treatment; 100% complete withering, 0% no effect
Description: as §1

transplanted rice = assay: Herbicidal damage on transplanted paddy rice, paddy field pot test; assay type: in vivo, Oryza sativa L. cultivar: Nihonbare; conditions: 125 g ai/ha applied onto water surface 5 days after transplanting; rated 3 weeks after treatment; 100% complete withering, 0% no damage
Description: as §1

annual broad leaf weeds = assay: Herbicidal effect to weeds in a paddy field, pot test; assay type: in vivo; conditions: 125 g ai/ha applied onto water surface; rated 3 weeks after treatment; 100% complete withering, 0% no effect
Description: as §1

Scirpus juncoides = assay: as above; assay type: in vivo; conditions: 125 g ai/ha applied onto water surface; rated 3 weeks after treatment; 100% complete withering, 0% no effect
Description: as §1

Echinochloa crus-galli = assay: as above; assay type: in vivo; conditions: 125 g ai/ha applied onto water surface; rated 3 weeks after treatment; 100% complete withering, 0% no effect
Description: as §1

[1] = test system: SU-resistant annual broad leaf weeds; assay: as above; assay type: in vivo; conditions: 125 g ai/ha applied onto water surface; rated 3 weeks after treatment; 100% complete withering, 0% no effect
Description: as §1

[2] = test system: SU-resistant Scirpus juncoides; assay: as above; assay type: in vivo; conditions: 125 g ai/ha applied onto water surface; rated 3 weeks after treatment; 100% complete withering, 0% no effect
Description: as §1

Row | Compound | herbicidal damage on directley seeded rice (directley seeded rice) [%] | herbicidal effect Sagittaria pygmaea (Sagittaria pygmaea) [%] | herbicidal effect Cyperus serotinus (Cyperus serotinus) [%] | herbicidal damage on transplanted rice (transplanted rice) [%] | herbicidal effect annual broad leaf weeds (annual broad leaf weeds) [%] | herbicidal effect Scirpus juncoides (Scirpus juncoides) [%] | herbicidal effect Echinochloa crus-galli (Echinochloa crus-galli) [%] | herbicidal effect SU-resistant annual broad leaf weeds [1] [%] | herbicidal effect SU-resistant Scirpus juncoides [2] [%]
1 | COc1nc(OC)nc(C(=O)c2cccc(Br)c2N(C)S(=O)(=O)C(F)F)n1 [Compound 10, N-{2-bromo-6-[(4,6-dimethoxy-1,3,5-triazin-2-yl)carbonyl]phenyl}-N-methyl-1,1-difluoromethanesulfonamide] | 30 | 100 | 100 | 10 | 90 | 100 | 100 | 100 | 90
2 | COc1cc(OC)nc(C(SC)c2cccc(Br)c2NS(=O)(=O)CC(F)(F)F)n1 (centres unmarked) [Compound 4, 2-bromo-6-[(4,6-dimethoxypyrimidin-2-yl)methylthiomethyl]-N-2,2,2-trifluoroethanesulfonanilide] | 10 | 100 | 100 | 0 | 100 | 100 | 100 | 100 | 90
3 | COc1cc(OC)nc(C(O)c2cccc(Br)c2NS(=O)(=O)CC(F)(F)F)n1 (centres unmarked) [Compound 1, 2-bromo-6-[(4,6-dimethoxypyrimidin-2-yl)(hydroxy)methyl]-N-2,2,2-trifluoroethanesulfonanilide] | 10 | 100 | 100 | 0 | 100 | 100 | 100 | 100 | 100
4 | COc1cc(Cl)nc(C(=O)c2cccc(Cl)c2N(C)S(=O)(=O)C(F)F)n1 [Compound 51, N-{2-chloro-6-[(4-chloro-6-methoxypyrimidin-2-yl)carbonyl]phenyl}-N-methyl-1,1-difluoromethanesulfonamide] | 30 | 100 | 100 | 10 | 90 | 100 | 100 | – | 90
5 | COc1cc(OC)nc(C(SC)c2cccc(I)c2NS(=O)(=O)CC(F)(F)F)n1 (centres unmarked) [Compound 8, 2-iodo-6-[(4,6-dimethoxypyrimidin-2-yl)(methylthio)methyl]-N-2,2,2-trifluoroethanesulfonanilide] | 10 | 100 | 100 | 0 | 100 | 100 | 100 | 100 | 90
6 | COc1cc(OC)nc(C(O)c2cccc(I)c2NS(=O)(=O)CC(F)(F)F)n1 (centres unmarked) [Compound 5, 2-iodo-6-[(4,6-dimethoxypyrimidin-2-yl)(hydroxy)methyl]-N-2,2,2-trifluoroethanesulfonanilide] | 30 | 100 | 100 | 20 | 100 | 100 | 100 | 100 | 90
7 | COc1cc(OC)nc(C(=O)c2cccc(Br)c2NS(=O)(=O)CC(F)(F)F)n1 [Compound 2, 2-bromo-6-[(4,6-dimethoxypyrimidin-2-yl)carbonyl]-N-2,2,2-trifluoroethanesulfonanilide] | 20 | 100 | 100 | 10 | 100 | 100 | 100 | 100 | 100
